One may read the Ki as the dissociation constant of the complex between target and ligand, obtained from inhibition or displacement.

In experiment [1] the target is Endoplasmic reticulum aminopeptidase 2 (Homo sapiens, UniProt Q6P179). As to the kind of experiment: Inhibition of human ERAP2 preincubated for 30 to 60 mins followed by addition of Arg-AMC as substrate measured for 15 mins by spectrofluorimetric method.
Experiment [2] deals with Endoplasmic reticulum aminopeptidase 1 (Homo sapiens, UniProt Q9NZ08). The experiment in a line: Inhibition of human ERAP1 preincubated for 30 to 60 mins followed by addition of Leu-AMC as substrate measured for 15 mins by spectrofluorimetric method.
Chain of Endoplasmic reticulum aminopeptidase 1 (Q9NZ08 whole entry): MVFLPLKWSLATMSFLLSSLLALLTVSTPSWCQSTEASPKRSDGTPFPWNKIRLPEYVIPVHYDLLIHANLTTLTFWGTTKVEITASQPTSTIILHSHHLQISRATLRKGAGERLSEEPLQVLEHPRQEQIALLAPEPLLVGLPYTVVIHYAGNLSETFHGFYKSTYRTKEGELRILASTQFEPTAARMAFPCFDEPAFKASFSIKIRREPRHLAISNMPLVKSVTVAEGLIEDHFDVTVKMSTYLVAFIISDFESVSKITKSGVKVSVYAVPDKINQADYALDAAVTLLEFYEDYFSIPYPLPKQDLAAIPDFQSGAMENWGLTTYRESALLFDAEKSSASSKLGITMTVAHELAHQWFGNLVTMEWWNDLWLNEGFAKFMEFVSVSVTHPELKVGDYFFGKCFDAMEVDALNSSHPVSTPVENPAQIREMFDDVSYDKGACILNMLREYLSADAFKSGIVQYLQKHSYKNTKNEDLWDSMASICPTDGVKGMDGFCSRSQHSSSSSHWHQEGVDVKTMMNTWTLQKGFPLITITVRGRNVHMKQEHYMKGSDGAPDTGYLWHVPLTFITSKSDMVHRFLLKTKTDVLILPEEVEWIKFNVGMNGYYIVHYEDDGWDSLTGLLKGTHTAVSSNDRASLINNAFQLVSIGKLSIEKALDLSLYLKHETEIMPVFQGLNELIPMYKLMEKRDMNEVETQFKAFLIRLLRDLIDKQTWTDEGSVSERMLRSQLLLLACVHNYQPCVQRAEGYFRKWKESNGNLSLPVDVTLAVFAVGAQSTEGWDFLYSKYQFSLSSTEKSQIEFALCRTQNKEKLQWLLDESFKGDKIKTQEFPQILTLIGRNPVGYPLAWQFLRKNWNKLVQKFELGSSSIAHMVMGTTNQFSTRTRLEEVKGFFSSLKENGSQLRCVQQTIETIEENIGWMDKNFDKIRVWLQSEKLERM
Experiment [3] can be described thus: Inhibition of Plasmodium falciparum APN preincubated for 30 mins followed by addition of L-Arg-ACC as substrate measured for 15 to 30 mins by fluorescence analysis.

Molecules are shown by their SMILES. Where only a bound is given, the exact number is not on record here.

Chain of Endoplasmic reticulum aminopeptidase 2 (Q6P179 whole entry): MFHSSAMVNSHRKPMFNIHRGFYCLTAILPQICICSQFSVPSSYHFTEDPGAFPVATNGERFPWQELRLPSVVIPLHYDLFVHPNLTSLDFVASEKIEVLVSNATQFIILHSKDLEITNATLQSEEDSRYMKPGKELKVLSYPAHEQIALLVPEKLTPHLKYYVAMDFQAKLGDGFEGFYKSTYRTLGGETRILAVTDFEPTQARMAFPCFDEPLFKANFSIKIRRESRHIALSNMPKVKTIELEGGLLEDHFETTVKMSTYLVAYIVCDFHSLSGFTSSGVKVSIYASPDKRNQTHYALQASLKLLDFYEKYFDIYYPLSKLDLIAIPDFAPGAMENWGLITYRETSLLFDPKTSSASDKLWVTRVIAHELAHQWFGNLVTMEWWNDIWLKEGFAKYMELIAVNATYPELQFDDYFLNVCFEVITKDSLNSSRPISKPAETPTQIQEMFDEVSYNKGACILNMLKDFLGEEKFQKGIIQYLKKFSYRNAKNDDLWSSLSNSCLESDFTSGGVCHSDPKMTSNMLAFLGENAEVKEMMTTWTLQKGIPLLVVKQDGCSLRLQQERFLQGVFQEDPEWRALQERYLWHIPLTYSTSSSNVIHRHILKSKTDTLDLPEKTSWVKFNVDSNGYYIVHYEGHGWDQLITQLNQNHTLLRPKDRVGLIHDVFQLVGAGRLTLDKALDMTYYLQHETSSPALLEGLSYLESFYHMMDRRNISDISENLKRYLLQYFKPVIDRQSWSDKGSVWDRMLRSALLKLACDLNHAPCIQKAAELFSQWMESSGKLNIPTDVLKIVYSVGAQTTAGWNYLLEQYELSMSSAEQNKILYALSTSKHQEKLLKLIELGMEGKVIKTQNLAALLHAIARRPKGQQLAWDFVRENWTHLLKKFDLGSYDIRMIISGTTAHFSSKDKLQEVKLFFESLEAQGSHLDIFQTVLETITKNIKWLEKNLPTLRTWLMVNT

Regarding `N[C@@H](CCc1ccccc1)P(=O)(O)C[C@@H](Cc1ccccc1)C(=O)O` (mixture of isomers), the figures for the Ki in experiment [1] and in experiment [2] were 1.03 µM and 6.27 µM, respectively. In experiment [1], `NCc1cccc(CC(CP(=O)(O)C(N)CCc2cccnc2)C(=O)O)c1` (configuration not stated) came in with a Ki of more than 250 µM.

In experiment [2], `Nc1ccc(CNCC(N)P(=O)(O)O)cc1` (configuration not stated) yielded a Ki of more than 250 µM.

Turning to `Cc1cc(C)cc(CC(CP(=O)(O)C(N)CCc2ccccc2)C(=O)O)c1` (configuration not stated), the Ki in experiment [1] and in experiment [2] was more than 250 µM throughout. In experiment [1], `NCc1ccc(CC(CP(=O)(O)C(N)CCc2ccccc2)C(=O)O)cc1` (configuration not stated) yielded a Ki of more than 250 µM. As to `NC(CNCc1ccccc1)P(=O)(O)O` (configuration not stated), the Ki was 106 µM in experiment [1] and more than 250 µM in experiment [2]. In the case of `NC(CNCC1CCNCC1)P(=O)(O)O` (configuration not stated), the Ki in experiment [2] was more than 250 µM. In turn, `NCC(N)P(=O)(O)O` (configuration not stated) showed a Ki in experiment [2] of more than 250 µM. `CC(C)CNCC(N)P(=O)(O)CC(Cc1ccccc1)C(=O)O` (configuration not stated) came in with a Ki in experiment [2] of more than 250 µM. As for `CC(C)C[C@H](N)P(=O)(O)O` [LEUCINE PHOSPHONIC ACID], the Ki was more than 250 µM in experiment [1] and 5.08 µM in experiment [2].

As to `CCCNCC(N)P(=O)(O)O` (configuration not stated), the Ki in experiment [1] and in experiment [2] was more than 250 µM in each case.

With `CCCCCCNCC(N)P(=O)(O)O` (configuration not stated), in experiment [2], the Ki was more than 250 µM. Same read-out and setting: as for `NC(CNC1CCCCC1)P(=O)(O)O` (configuration not stated), the figure is more than 250 µM; as for `NCC(N)P(=O)(O)CC(Cc1ccccc1)C(=O)O` (configuration not stated), more than 250 µM. Take `CN(C)CCNCC(N)P(=O)(O)O` (configuration not stated): the Ki in experiment [1] and in experiment [2] was more than 250 µM throughout.

As to `NC(CN1CCOCC1)P(=O)(O)O` (configuration not stated), the Ki in experiment [1] and in experiment [2] was more than 250 µM in each case. For `NC(CNCCN1CCNCC1)P(=O)(O)O` (configuration not stated), the Ki in experiment [2] was more than 250 µM.

Turning to `NC(CCc1ccccc1)P(=O)(O)CC(Cc1ccccc1)C(=O)O` (configuration not stated), the results for the Ki in experiment [1], in experiment [2] and in experiment [3] were 0.35 µM, 19.1 µM and 0.078 µM, respectively. With `NC(CCc1ccccc1)P(=O)(O)CC(Cc1ccc(O)cc1)C(=O)O` (configuration not stated), the Ki in experiment [1] worked out at 1.04 µM; in experiment [2] it was 6.47 µM. Consider `COc1ccc(CCNCC(N)P(=O)(O)O)cc1` (configuration not stated), for which the Ki in experiment [2] was more than 250 µM. In turn, `CC(C)(C)c1ccc(CNCC(N)P(=O)(O)O)cc1` (configuration not stated) came in with a Ki in experiment [2] of more than 250 µM. As to `COc1ccc(CCNCC(N)P(=O)(O)CC(Cc2ccccc2)C(=O)O)cc1` (configuration not stated), in experiment [2], the Ki is more than 250 µM.

In the case of `NC1CCCCC1NCC(N)P(=O)(O)O` (configuration not stated), the Ki in experiment [2] was more than 250 µM. Consider `NCc1cccc(CC(CP(=O)(O)C(N)CCc2ccccc2)C(=O)O)c1` (configuration not stated), for which the Ki in experiment [1] is more than 250 µM. Compound `NCc1ccc(CNCC(N)P(=O)(O)O)cc1` (configuration not stated) returned a Ki in experiment [2] of more than 250 µM. Same read-out and setting: with `NC(CNC1CCCCCC1)P(=O)(O)CC(Cc1ccccc1)C(=O)O` (configuration not stated) the figure was more than 250 µM; with `COc1ccc(CNCC(N)P(=O)(O)O)cc1` (configuration not stated), more than 250 µM; with `NC(CN1CCCCC1)P(=O)(O)O` (configuration not stated), more than 250 µM.

With `CC(NCC(N)P(=O)(O)O)c1ccccc1` (configuration not stated), the Ki in experiment [1] and in experiment [2] was more than 250 µM in each case.

In the case of `NC(CNC1CCCCCC1)P(=O)(O)O` (configuration not stated), the Ki in experiment [2] was more than 250 µM.

Turning to `NC(CNCC1CCCO1)P(=O)(O)O` (configuration not stated), the Ki in experiment [1] and in experiment [2] was more than 250 µM throughout. Take `CC(C)C[C@@H](N)P(=O)(O)O`: the Ki was more than 250 µM in experiment [1] and 249 µM in experiment [2]. `CCCNCC(N)P(=O)(O)CC(Cc1ccccc1)C(=O)O` (configuration not stated): the inhibitory constant (Ki) in experiment [2] was more than 250 µM.

Take `CNCC(N)P(=O)(O)O` (configuration not stated): the inhibition constant (Ki) in experiment [1] and in experiment [2] was more than 250 µM each time. As for `NCCNCC(N)P(=O)(O)O` (configuration not stated), the Ki in experiment [1] and in experiment [2] was more than 250 µM in each case. `NC(CNC1CCCCC1)P(=O)(O)CC(Cc1ccccc1)C(=O)O` (configuration not stated) came in with a Ki in experiment [2] of more than 250 µM. `NC(CNCCc1ccccc1)P(=O)(O)O` (configuration not stated) showed a Ki in experiment [2] of more than 250 µM.

Source of the values: ChEMBL document CHEMBL3826883, “Discovery of potent and selective inhibitors of human aminopeptidases ERAP1 and ERAP2 by screening libraries of phosphorus-containing amino acid and dipeptide analogues” (Bioorg Med Chem Lett, 2016).
